Laboratory results reported in US6054441A, “Oxypurine nucleosides and their congeners, and acyl derivatives thereof, for improvement of hematopoiesis” (priority 1995, dated 2000).

Key:
[1] = test system: hematopoietic recovery after cyclophosphamide; test: Hematopoietic recovery after cyclophosphamide (Example 59); assay type: in vivo, Balb/C mice; conditions: days 5 and 7; 25 mg/kg/day i.p.
Method: Cyclophosphamide (CP) (275 mg/kg, i.p.) was administered to 28 Balb/C female mice weighing approximately 20 grams each. Twenty-four hours later and each day for 4 days thereafter, mice were given a 0.4 ml i.p. injection of either physiological saline (controls) or palmitoyl-8-aminoguanosine (25 mg/kg/day in 0.2% Tween 80). On days 5 and 7 following CP administration 7 animals from each of the 2 groups were bled and then were sacrificed by cervical dislocation. Spleens were removed and weighed, and complete blood cell counts performed.

[2] = test system: hematopoietic recovery after cyclophosphamide; test: Hematopoietic recovery after cyclophosphamide, acyl chain length (Example 38); assay type: in vivo, Balb/C mice; conditions: day 7; guanosine 5, acyl derivatives 2.5 μmoles/mouse/day i.p.
Method: Cyclophosphamide (CP) (275 mg/kg, i.p.) was administered to 70 Balb/C female mice weighing approximately 20 grams each. Twenty-four hours later and each day thereafter for a total of 6 days, mice were given a 0.4 ml i.p injection of either physiological saline (controls), Tween 80 (0.2%), guanosine (5 μmoles/mouse/day in 0.2% Tween 80), or 2.5 μmoles per mouse per day of one of the following acylated derivatives of guanosine in 0.2% Tween 80: triacetylguanosine, octanoylguanosine, lauroylguanosine, or palmitoylguanosine. On day 7 following CP administration all 10 animals from each of the 7 groups were bled, and then sacrificed by cervical dislocation. Spleens were removed and weighed, and complete blood counts performed.

[3] = test system: hematopoietic recovery after cyclophosphamide; test: Dose-response, hematopoietic recovery after cyclophosphamide (Example 45); assay type: in vivo, Balb/C mice
Method: Cyclophosphamide (CP) (275 mg/kg, i.p.) was administered to 45 Balb/C female mice weighing approximately 20 grams each. Twenty-four hours later and each day thereafter for a total of 6 days, mice were given a 0.4 ml i.p. injection of either physiological saline (controls), Tween 80 (0.5%), or one of three different doses of octanoylguanosine ([…]). On day 7 following CP administration all 9 animals from each of the […] were bled and then sacrificed by cervical dislocation. Spleens were removed and weighed, and complete blood cell counts performed.

[4] = test system: hematopoietic recovery after cyclophosphamide; test: Histological examination of spleens and blood counts after cyclophosphamide (Example 46); assay type: in vivo, Balb/C mice; conditions: day 7
Method: Cyclophosphamide (CP) (275 mg/kg, i.p.) was administered to 30 Balb/C female mice weighing approximately 20 grams each. Twenty-four hours later and each day thereafter for a total of 6 days, mice were given a 0.4 ml i.p. injection of either physiological saline (controls), Tween 80 (0.5%), or octanoylguanosine (5.0 μmoles/mouse/day in 0.5% Tween 80). On day 7 following CP administration all 10 animals from each of the 3 groups were bled and then sacrificed by cervical dislocation. Spleens were removed, weighed, and fixed in 10% formalin for later histological examination. Complete blood cell counts were performed on the collected blood.

[5] = test system: hematopoietic recovery after cyclophosphamide; test: Surfactants, hematopoietic recovery after cyclophosphamide (Example 58); assay type: in vivo, Balb/C mice; conditions: day 7
Method: Twenty-four hours later and each day thereafter for a total of 6 days, mice were divided into seven groups and given a 0.4 ml i.p. injection of either physiological saline (controls), Tween 80 at each of three concentrations (0.02%, 0.2% and 1%) or octanoylguanosine (50 mg/kg/dose) in three different concentrations of Tween 80 (0.02%, 0.2% and 1%). On day 7 following CP administration all 9 animals from each of the […] were bled and then sacrificed by cervical dislocation. Spleens were removed and weighed, and complete blood cell counts performed.

[6] = test system: hematopoietic recovery after cyclophosphamide; test: Hematopoietic recovery after cyclophosphamide (Example 51); assay type: in vivo, Balb/C mice; conditions: day 5; 2 μmoles/mouse
Method: Cyclophosphamide (CP) (275 mg/kg, i.p.) was administered to 88 Balb/C female mice weighing approximately 20 grams each. Twenty-four hours later and each day thereafter mice were given a 0.4 ml i.p. injection of either Tween-80 (0.2%) (controls), 3'-O-palmitoyldeoxyguanosine (2 μmoles/mouse), butyryldeoxyguanosine (2 μmoles/mouse), palmitoyl-N-isobutyryldeoxyguanosine (2 μmoles/mouse), lauryldeoxyguanosine (2 μmoles/mouse), octanoyldeoxyguanosine (2 μmoles/mouse), and palmitoyldeoxyguanosine (2 μmoles/mouse). On days 5 and 7 following CP administration 6 or 7 animals in each of the 7 groups were bled and then sacrificed by cervical dislocation. Spleens were removed and weighed, and complete blood cell counts performed.

[7] = test system: hematopoietic recovery after cyclophosphamide; test: Dose-response, hematopoietic recovery after cyclophosphamide (Example 52); assay type: in vivo, Balb/C mice; conditions: days 5 and 7; 0.2-2.0 μmoles/mouse, except 0.2 on day 5
Method: (§1) Cyclophosphamide (CP) (275 mg/kg, i.p.) was administered to 85 Balb/C female mice weighing approximately 20 grams each. Twenty-four hours later and each day thereafter mice were given a 0.4 ml i.p. injection of either physiological saline (controls), or palmitoyldeoxyguanosine at one of four different doses: 0.2, 0.4, 1.0 or 2.0 μmoles/mouse). On days 5 and 7 following CP administration 9 and 8 animals, respectively, in each of the 5 groups were bled and then sacrificed by cervical dislocation. Spleens were removed and weighed, and complete blood cell counts performed.

[8] = test system: hematopoietic recovery after cyclophosphamide; test: Comparative dose-response, hematopoietic recovery after cyclophosphamide (Example 53); assay type: in vivo, Balb/C mice
Method: as §1, with “to 96” for “to 85”, “(controls), palmitoylguanosine” for “(controls), or palmitoyldeoxyguanosine”, “2.0 μmoles/mouse), or palmitoyldeoxyguanosine at a dose of 1.0 μmoles/mouse.” for “2.0 μmoles/mouse).”, “administration” for “administration 9 and”, “8 animals from” for “8 animals, respectively, in”, “the 6” for “the 5”

[9] = test system: hematopoietic recovery after cyclophosphamide; test: Dose-response, hematopoietic recovery after cyclophosphamide (Example 54); assay type: in vivo, Balb/C mice
Method: Cyclophosphamide (CP) (275 mg/kg, i.p.) was administered to 112 Balb/C female mice weighing approximately 20 grams each. Twenty-four hours later and each day thereafter mice were given a 0.4 ml i.p. injection of either physiological saline (controls), or palmitoyldeoxyguanosine at one of six different doses: 0.04, 0.08, 0.2, 0.4, 0.6 or 0.8 μmoles/mouse. On days 5 and 7 following CP administration 8 animals from each of the 7 groups were bled and then sacrificed by cervical dislocation. Spleens were removed and weighed, and complete blood cell counts performed.

[10] = test system: hematopoietic recovery after cyclophosphamide; test: Recovery of blood cell counts in rats after cyclophosphamide (Example 55); assay type: in vivo, F344 rats
Method: Cyclophosphamide (CP) (40 mg/kg, i.p.) was administered to 16 F344 male rats weighing approximately 200 grams each. Twenty-four hours later and each day thereafter rats were given a 0.5 ml i.p. injection of either physiological saline (controls), or palmitoyldeoxyguanosine at a dose of […]. On days 5, 7 and 10 following CP administration all 8 animals from both groups were bled and complete blood cell counts performed. On day 10 all of the rats were sacrificed and their spleens removed and weighed.

[11] = test system: hematopoiesis in normal mice; test: Hematopoiesis in normal mice (Example 56); assay type: in vivo, Balb/C mice; conditions: day 5, 2.6 μmoles/mouse, 4 days
Method: Normal Balb/C female mice weighing approximately 20 grams each were given a daily 0.4 ml i.p. injection of either physiological saline (controls), palmitoylguanosine (2.6 μmoles/mouse), palmitoyldeoxyguanosine (2.6 μmoles/mouse), monopalmitoylguanosine 2',3'-acyclic dialcohol (2.6 μmoles/mouse), and palmitoyl-8-bromoguanosine (2.6 μmoles/mouse) for 4 days. On the fifth day all 3 animals in each of the 5 groups were bled and then sacrificed by cervical dislocation. Spleens were removed and weighed, and complete blood cell counts performed. Femoral bone marrow from each mouse was collected and a differential cell count performed on marrow smears.

[12] = test system: hematopoietic recovery from fluorouracil; test: Pretreatment, hematopoietic recovery from fluorouracil (Example 57); assay type: in vivo, Balb/C mice
Method: Twenty-eight female Balb/C mice weighing approximately 20 grams each received a 0.4 ml i.p. injection of either physiological saline (controls), or palmitoyldeoxyguanosine (1 μmole/mouse) daily for three days. On the fourth day 5-flourouracil (5-FU) (150 mg/kg, i.p.) was administered to all 28 of the animals. On days 5, 8 and 11 following 5-FU administration 4 (day 5) or 5 (days 8 and 11) animals from both groups were bled and then sacrificed by cervical dislocation. Spleens were removed and weighed, and complete blood cell counts performed.

[13] = test system: Interleukin-3 dependent bone marrow cells; conditions: 10 micrograms per milliliter
Method: Bone marrow cells were obtained by flushing the femurs of three male B6D2F1 mice. The cells were plated at 5.0×10^5 /ml in MEM plus 10% fetal calf serum and 25 Units/ml of recombinant IL-3 for 24-48 hours. Non-adherent cells were then separated from adherent cells and maintained for an additional twelve days. IL-3 was washed from cells, and cells were plated in MEM plus 10% fetal calf serum in the presence or absence of IL-3 and with or without the addition of palmitoyldeoxyguanosine (10 micrograms per milliliter) or deoxyguanosine (10 micrograms per milliliter). Cells were counted using the trypan blue exclusion method, and the percent of dead cells (trypan blue positive) was determined at 24, 40, 60 and 84 hours following the wash.

[14] = test system: hematopoietic recovery after cyclophosphamide; test: Hematopoietic recovery after cyclophosphamide (Example 37); assay type: in vivo, Balb/C mice; conditions: 5 μmoles/mouse/day i.p. 6 days; day 7; vs saline
Method: Twenty-four hours later and each day thereafter for a total of 6 days, mice were given a 0.4 ml i.p. injection of either physiological saline (controls), guanine (5 μmoles/mouse/day), or guanosine (5 μmoles/mouse/day). On day 7 all 10 mice in each of the three groups were bled, and then sacrificed by cervical dislocation. Spleens were removed and weighed, and complete blood cell counts performed.

leukocytes = conditions: 100 mg i.p.; after 10 hours and for 24 hours thereafter; cited from earlier work
[15] = test system: human myeloid leukemia cell line (HL-60); conditions: HL-60 with inducing agents; cited from earlier work
[16] = day 5, palmitoylguanosine 2.0, palmitoyldeoxyguanosine 1.0 μmoles/mouse
[17] = day 7, palmitoylguanosine 1.0 and 2.0, palmitoyldeoxyguanosine 1.0 μmoles/mouse

In the case of `CCCCCCCCCCCCCCCC(=O)OC[C@H]1O[C@@H](n2c(N)nc3c(=O)[nH]c(N)nc32)[C@H](O)[C@@H]1O` [palmitoyl-8-aminoguanosine], the Neutrophils [1] was “significantly elevated” and the spleen weight [1] was “significantly elevated”.

With `CCCCCCCC(=O)OC[C@H]1O[C@@H](n2cnc3c(=O)[nH]c(N)nc32)[C@H](O)[C@@H]1O` the spleen weight [2] was “significantly larger spleens”, the spleen weight ([3]; day 7, 0.5, 2.5 or 5 μmoles/mouse/day, vs controls and Tween 80) was “significantly larger spleens” and the spleen size ([3]; day 7, highest dose (10 μmoles)) was “largest spleens”. For the same compound, the “total number of leukocytes” value ([3]; day 7, vs control) was “significantly increased above control values in a dose-dependent manner”, the “total number of neutrophils” value ([3]; day 7, vs control) was “significantly increased above control values in a dose-dependent manner” and the “accelerating regeneration of hematopoiesis” value ([3]; middle dose 2.5 μmoles) was “nearly as effective as the highest dose”. For the same compound, the spleen weight ([4]; Tween 80 0.5%, octanoylguanosine 5.0 μmoles/mouse/day) was “significantly greater”, the Neutrophils ([4]; vs control or Tween 80) was “significantly greater numbers” and the “peripheral white blood cells (WBC)” value ([4]; vs control or Tween 80) was “significantly greater numbers”. The “histological examination of spleens” value ([4]; vs saline and Tween 80) was “much greater lymphopoiesis (increased white pulp) and myelopoiesis (increased red pulp)”, the neutrophil counts ([5]; 50 mg/kg in 0.02% and 0.2% Tween 80, vs saline) was “significantly different from controls” and the neutrophil counts ([5]; 50 mg/kg in 0.2% vs in 0.02% Tween 80) was “significantly higher”.

For `CCCCCCCCCCCCCCCC(=O)OC[C@H]1O[C@@H](n2cnc3c(=O)[nH]c(N)nc32)C[C@@H]1O` [palmitoyldeoxyguanosine], the spleen weight [6] was “significantly elevated”, the total neutrophil counts [6] was “significantly elevated” and the “white blood cell counts” value [6] was “significantly elevated”. The spleen weight [7] was “significantly elevated”, the total neutrophil counts [7] was “significantly elevated” and the “white blood cell counts” value [7] was “significantly elevated”. The spleen weight [8, 16] was “significantly elevated”, the total neutrophil counts [8, 16] was “significantly elevated” and the “white blood cell counts” value [8, 16] was “significantly elevated”. The spleen weight [8, 17] was “significantly elevated”, the total neutrophil counts [8, 17] was “significantly elevated” and the “white blood cell counts” value [8, 17] was “significantly elevated”. The “relative potency in elevating spleen weight and cell counts” value ([8]; vs palmitoylguanosine) was “more potent in elevating these parameters than the same or even a 2-fold greater dose of palmitoylguanosine”, the spleen weight ([9]; day 5, 0.2 μmoles/mouse or greater) was “significantly elevated” and the “white blood cell counts” value ([9]; day 5, 0.4 μmoles/mouse or greater) was “significantly elevated”. The “white blood cell counts” value ([9]; day 7, all doses) was “statistically significant differences were seen at all doses”, the spleen weight ([9]; day 7, all doses except 0.04 μmoles/mouse) was “significantly elevated” and the total neutrophil counts ([9]; days 5 and 7, all 6 doses) was “significantly elevated”. The Lymphocytes ([10]; day 10, i.p.) was “significantly elevated”, the Platelets ([10]; day 10, i.p.) was “significantly elevated” and the spleen weight ([10]; day 10, i.p.) was “significantly elevated”. For the same compound, the total neutrophil counts ([10]; days 5, 7 and 10, i.p.) was “significantly elevated”, the “white blood cell counts” value ([10]; days 5, 7 and 10, i.p.) was “significantly elevated” and the spleen weight [11] was “significantly elevated”. For the same compound, the number of myelocytes ([11]; femoral bone marrow) was “significantly greater”, the platelet counts ([12]; day 5, 1 μmole/mouse, 3 days before 5-FU) was “significantly elevated” and the platelet counts ([12]; day 8) was “significantly higher”. For the same compound, the spleen weight ([12]; day 8) was “significantly higher”, the total neutrophil counts ([12]; day 8) was “significantly higher” and the lymphocyte counts ([12]; day 11) was “significantly higher”. The platelet counts ([12]; day 11) was “significantly higher”, the spleen weights ([12]; day 11) was “significantly higher” and the total neutrophil counts ([12]; day 11) was “significantly higher”. The “total white blood cell counts” value ([12]; day 11) was “significantly higher” and the “prevention of apoptotic cell death due to IL-3 deprivation” value [13] was “significantly reduced the percentage of dead cells”.

In the case of `Nc1nc2c(ncn2[C@@H]2O[C@H](CO)[C@@H](O)[C@H]2O)c(=O)[nH]1` [guanosine], the Neutrophils [14] was “significantly more”, the spleen weight [14] was “significantly heavier spleens” and the “total white blood cells” value [14] was “significantly more”. For the same compound, the spleen weight [2] was “No significant difference”, the “leukocyte counts, leukocytosis” value (leukocytes) was 11,000 per mm^3 and the “effect on induced maturation of HL-60 cells” value [15] was “prevented their induced maturation into functional neutrophils”.
